Results from patent US20120316210A1, “TOPICAL ANTIPARASITIC FORMULATIONS” (priority 2010, published 2012).
Like-named read-outs stand apart in the source and are kept apart here.

What was measured:
[1] = assay type: physicochemical
Protocol: (§1) […] is also a weak base due to the presence of the imidazole ring. […] An acid modifier (or mixtures thereof) was added to the formulation in a molar equivalent relative to the amount of demiditraz to adjust the pH below 7.5 and reduce or eliminate the nucleophilic reaction between fipronil and demiditraz. The acid modifier includes both weak and strong acids. The weak acids include sugar acids (glyceric, gluconic, ascorbic, tartaric, and the like), carboxylic acid derivatives (mono-, di-, and tri-chloro acetic acid, and mono-, di-, and tri-fluoro acetic acid, benzoic, and the like) and mono-, di-, and tri-carboxylic acids. Non-exclusive examples of monocarboxylic acids include formic, acetic, propionic, butyric, oleic, valeric, caproic, enanthic, caprylic, linoleic, chloroacetic, dichloroacetic, oxalic, benzoic, pelargonic, capric, lauric, myristic, palmitic, stearic, and arachidic acid. Non-exclusive examples of di-carboxylic acids include oxalic, malonic, succinic, fumaric, aldaric, tartaric, glutaric, adipic, maleic, malic, pimelic, suberic, azelaic, sebacic, phthalic, isophtalic, and terephthalic acid. Non-exclusive examples of tri-carboxylic acids include citric, isocitric, aconitic, propane-1,2,3-tricarboxylic, and trimesic acid.
The addition of the weak acid in the formulation lowered the apparent pH of the formulation to about 6.5 to 7.5, however, fipronil degraded initially by about 5-6% followed by slower degradation to about 10-15% during an accelerated (70°) kinetic study. Strong acids (pka≦2) were added to the formulation to both lower apparent pH to about 2.5 to about 3.5 and to protonate demiditraz to prevent it from potentially acting as a nucleophile against fipronil. Non-exclusive examples of strong acids include inorganic acids (e.g., HCl, HBr, HI, HF, nitric acid, phosphoric acid, boric acid, sulfuric acid, and the like). Other strong acids include sulfonic acid and sulfonic acid derivatives thereof. Non-exclusive examples of sulfonic acid derivatives include methane-, ethane-, p-toluenesulfonic (p-TSA), and dodecylbenzenesulfonic acid. The use of a strong acid, e.g., p-TSA, increased fipronil stability, however, degradation was still about 5% after 12 weeks at 50° C.
The initial instability of fipronil was reduced to about ≦1% during an accelerated (70° C.) 1-week stability study for DPGMME with a strong acid and for NMP with a strong or weak acid.

[2] = assay type: physicochemical; remark: listed apart in the source
Protocol: as §1

[3] = pKa of demiditraz; assay type: physicochemical; conditions: weak base
Protocol: as §1

SMILES	Fipronil initial degradation [1]	Fipronil slower degradation following the initial one [1]	Fipronil stability when formulated with demiditraz [1]	Fipronil degradation ([1]; 1 week)	Initial instability of fipronil ([1]; 1 week)	Fipronil degradation ([1]; 12 weeks)	pH levels at which fipronil degrades rapidly [2]	pKa [3]
N#Cc1nn(-c2c(Cl)cc(C(F)(F)F)cc2Cl)c(N)c1[S+]([O-])C(F)(F)F (centres unmarked) [fipronil]	5-6%	10-15%	unstable	3-6%	≤ 1%	about 5%	above 7.5	–
Cc1cccc([C@H](C)c2ncc[nH]2)c1C [Demiditraz, demiditraz]	–	–	–	–	–	–	–	7.2
